Measured values: patent US20180192651A1, “THERMAL VOLATILIZATION OF ORCO AGONISTS” (VANDERBILT UNIVERSITY, priority 2015, published 2018)

Experiments:
[1] = test system: odorant receptor neuronal cells expressing Orco; test: Currents in odorant receptor neuronal cells expressing Orco; assay type: cell-based, Drosophila melanogaster; details: thermally volatized compound; FIG. 3
[2] = test system: Capitate peg neuron A (cpA), a carbon dioxide sensor that does not contain Orco; test: Single sensillum recordings (SSRs), maxillary palp capitate peg neuron A; assay type: in vivo, Anopheles gambiae; details: cpA is the negative control; for Huffing cpA: Huffing: airstream in combination with heat (propane or butane torch); for Puffing cpA: Puffing: airstream only for compound delivery
Description: (§1) Single sensillum recordings (SSRs) were performed on single capitate peg (cp) sensillum along the maxillary palps that house three types of olfactory receptor neurons (ORNs). 5- to 7-d-old non-blood fed female Anopheles gambiae that were maintained on 10% sucrose at 12h/12h light/dark cycle were used. Mosquitoes were immobilized by chilling at -20° C. for 1 min before removing wings and legs and then fixing on a glass coverslip covered with double-sided sticky tape. Maxillary palps were extended and held onto the double-sided sticky tape with a piece of hair brush thread. Chloridized silver wires in drawn-out glass capillaries were filled with 0.1% KCl and used as reference and recording electrodes. The reference electrode was placed in the eye, and recording electrode was brought into contact with the sensillum under the microscope (Olympus BX51WI; 800× magnification) by use of a Piezo-Patch micromaniputor (PPM5000; World Precision Instruments). The signals were digitized by the IDAC4 interface box (Syntech, Hilversum, The Netherlands) and offline analysis carried out by using analyzed with AutoSpike v. 3.2 software (Syntech). The extracellular activity of individual capitate peg sensillum ORNs are physiologically distinct and can be characterized into cpA (large), cpB (medium), and cpC (small) based on their spike amplitudes and shape. Responses were quantified by subtracting the number of spikes 1 s before odor stimulation from the number of spikes 1 s after the onset of odor stimulation from individual preparations. […] A 25 μL (VUAA1) or 25 μL aliquot (VUAnt) was then applied to a filter paper strip and placed inside a glass Pasteur pipette. The compound was then delivered by heating the pipette by a propane or butane torch right at the place of treatment for approximately 1 seconds. The compound was then delivered by puffing the odor cartridges with a controlled 0.5-s stimulus of air (5 mL/s) into a humidified airstream (10 mL/s), which was passed over the sensillum. Alternatively, 2-5 mgs of solid compound were measured into a glass Pasteur pipette. The glass pipette was then exposed to heat from a micro propane or butane torch for approximately 5 to 10 seconds. The compound was then delivered by puffing the odor cartridges with a controlled 0.5-s stimulus of air (5 mL/s) into a humidified airstream (10 mL/s), which was passed over the sensillum. Each compound was subjected to in vivo single […] recordings (SSRs) from the maxillary palp of An. gambiae. Puffing refers to use of an airstream only for compound delivery. Huffing refers to the use of an airstream in combination with heat. Specifically, huffing involved direct combustion of the solid compound via propane or butane torch. […] Capitate peg neurons B/C (cpB/C) are neurons known to contain Orco. Carbon dioxide activates only cpA, while 1-octen-3-ol is a known activator of cpB/C.

[3] = test system: Capitate peg neurons B/C (cpB/C), neurons known to contain Orco; test: Single sensillum recordings (SSRs), maxillary palp capitate peg neurons B/C; assay type: in vivo, Anopheles gambiae; details: for Huffing cpB/C: Huffing: airstream in combination with heat (propane or butane torch); for Puffing cpB/C: Puffing: airstream only for compound delivery
Description: as §1

Row | Structure (SMILES) | currents induced in odorant receptor neuronal cells expressing Orco [1] | Huffing cpA [2] | Puffing cpA [2] | Huffing cpB/C [3] | Puffing cpB/C [3]
1 | CCc1ccc(NC(=O)CSc2nnc(-c3cccnc3)n2CC)cc1 [Compound 2] | currents induced | − (− = <10 spikes/s) | − (− = <10 spikes/s) | + (+ = 10-20 spikes/s) | − (− = <10 spikes/s)
2 | CCn1c(SCC(=O)N2c3ccccc3Sc3ccccc32)nnc1-c1ccco1 [Compound 4, 2-[[4-ethyl-5-(2-furanyul)-4H-1,2,4-triazol-3-yl]thio]-1-(10OH-phenothiazin-10-yl)-ethanone] | – | + (+ = 10-20 spikes/s) | − (− = <10 spikes/s) | + (+ = 10-20 spikes/s) | − (− = <10 spikes/s)
3 | CCn1c(SCC(=O)Nc2ccc(C)cc2)nnc1-c1cccnc1 [Compound 1] | – | − (− = <10 spikes/s) | − (− = <10 spikes/s) | +++ (+++ = >40 spikes/s) | − (− = <10 spikes/s)
4 | O=C=O [CO2, carbon dioxide, reference compound] | – | – | +++ (+++ = >40 spikes/s) | – | − (− = <10 spikes/s)
5 | C=CC(O)CCCCC (centres unmarked) [Compound 1-octen-3-ol, 1-octen-3-ol, reference compound] | – | – | − (− = <10 spikes/s) | – | +++ (+++ = >40 spikes/s)
